Assay results as given in patent publication US20220287938A1, “COSMETIC COMPOSITION COMPRISING EUTECTIC MIXTURE” (LG HOUSEHOLD & HEALTH CARE LTD., priority 2019, published 2022).

Assays:
[1] = Skin permeability on pig skin (serine quantified by liquid chromatography); format: in vitro ADME; settings: pH 6.0 (mixtures adjusted to weakly acidic using citric acid); serine 5 parts by weight
Experimental: 10 μg of each of the aqueous solutions of Comparative Examples 1 and 2 and Example 1 were prepared and applied to pig skin having a uniform area. A tissue soaked with phosphate buffered saline (PBS) was placed on a 6-well plate and stored with the pig skin placed on the tissue under conditions of a temperature of 37° C. and a humidity of 50% for 12 hours. Then, the sample that could not penetrate the skin was removed using a cotton swab and a keratin tape, and the weight of the pig skin was measured. After the pig skin was crushed using a homogenizer, the amino acid and the eutectic mixture in the sample were sufficiently dissolved by adding 1 ml of water thereto, and then the resulting solution was centrifuged at 12,000 rpm for 10 minutes. After centrifugation, 0.5 ml of the supernatant was collected, and the serine concentration of the sample, which would be the amount permeated through the skin, was quantified using liquid chromatography with standard samples, and then transmittance was obtained by dividing the quantified concentration by the weight of the pig skin and comparing this to the initially introduced serine mass, as serine amount per gram of the tissue. The results of the skin permeability are illustrated in FIG. 2.
The skin permeability of the eutectic mixture prepared in Experimental Example 12 was confirmed. […]

[2] = test system: back skin of a pig; test: Keratin exfoliation effect on pig back skin (exfoliated keratin counted with cell counter)
Experimental: In order to confirm the keratin exfoliation effect of the aqueous eutectic mixture solution by the serine concentration of Example 2, the back skin of a pig was treated with the aqueous solution. Specifically, a 6-mm diameter sample with a thickness of 1 mm was taken from the back skin of the pig using a biopsy tool. After the sample was placed on a 96-well plate and washed once with phosphate buffered saline (PBS), 100 μl of the aqueous eutectic mixture solution of Example 2 was added thereto. In this case, to compare the keratin exfoliation effects, 100 μl of Comparative Example 4, a solution containing serine and malic acid, was added to the back skin of a pig in the same manner as described above. After the pig's back skin sample treated with each aqueous solution was stored under conditions of a temperature of 37° C. and humidity of 50% for 16 hours, the keratin exfoliation effect was confirmed by measuring the number of exfoliated keratin with a cell counter. In this case, a sample to which water was added was used as a negative control, a sample to which 10% gluconolactone (polyhydroxy acid, PHA) with a pH of 4, which is a known keratin exfoliating substance, was added was used as a first positive control, and a sample to which 10% gluconolactone with a pH of 6 was added was used as a second positive control. In the case of the second positive control, the keratin exfoliation effect was evaluated based on the condition that the efficacy was 15 to 20% compared to the first positive control. Here, the first positive control is applied as a reference for comparing the values between the actual experimental examples, and a relative keratin exfoliation value (%) was calculated and described as [(result value of sample)/(value of first positive control group)×100]. […]
Furthermore, it was confirmed whether the eutectic mixture was dissociated by observing the properties of a cosmetic (essence) including the eutectic mixture of Example 12, which was allowed to stand under separation conditions of the eutectic composition (Table 27) and confirming changes in melting point through measurement by differential scanning calorimetry (DSC) (Table 28) and the keratin exfoliation effect (Table 29), of the cosmetic. […] The melting point is expressed as a heat flow with respect to the sample in the DSC, and its accuracy is known to be 0.01° C. The melting point was measured in a pure nitrogen atmosphere, nitrogen was fed into a measuring chamber at a rate of 20 cc/min in order to maintain the nitrogen atmosphere, and the temperature of the chamber was set so as to increase by 10° C. per minute. The mass of the measured sample was confirmed by subtracting the weight of a pan for accommodating the sample in the DSC from the weight including the entire sample. […]

[3] = test system: human fibroblasts; test: Total amount of collagen produced (PICP EIA kit); format: cell-based; settings: for Average absorbance: 450 nm, number of repeats=3; for Collagen increase rate (%): relative to control (no additive)
Experimental: The total amount of collagen was quantified using a PICP kit (Procollagen Type I C-Peptide Enzyme ImmunoAssay KIT).
Specifically, after each sample was added to the culture medium of human fibroblasts and cultured for 1 day, the culture medium was taken, and a degree of increase in the total amount of collagen at each concentration was measured at 450 nm using a spectrophotometer with the PICP EIA kit.

[4] = test system: HaCaT cells; test: Scratch wound healing (skin regeneration promotion); format: cell-based, human
Experimental: HaCaT cells, which are a human-derived keratinocyte cell line, were cultured under conditions of 37° C. and 5% CO2 using a DMEM medium (ADDEXBIO TECHNOLOGIES, San Diego, Calif., USA) supplemented with 10% fetal bovine serum (Gibco, Waltham, Mass., USA), […] and […]. After the cultured cells were seeded into a 24-well plate so as to have 2.0×10^5 cells per well, and then cultured for 24 hours, the cells were washed once with PBS, and scratches having a perpendicular line shape were created on the center of the plate by scraping the cells with a 200 μl pipet tip. The cells were washed twice with PBS to remove the dropped cell debris, and the medium was replaced with a […] DMEM containing each test material. In order to always capture the same part when the cells were photographed, the center of the well was marked with a fine marker and the cell photograph of the marked part was taken at the same time at the start of the experiment (0 hours). The cell photographs after 2, 4 and 24 hours were also taken in the same way. After a scratch area created on monolayer cells was measured from the photographs after 0 hours and 24 hours using an image analysis program (Image J), the area filled with the scratch area was shown as a wound healing percentage (%) according to the following General Formula 1.

N[C@@H](CO)C(=O)O [Serine, serine]
Skin permeability relative value (Maximum value converted to 100%) [1]: 71.7%

O=C1O[C@H](CO)[C@@H](O)[C@H](O)[C@H]1O [PHA, gluconolactone]
Keratin exfoliation relative value (%) ([2]; pH 4.0, 10% gluconolactone, first positive control (reference = 100)): 100%
Keratin exfoliation relative value (%) ([2]; pH 4.0, first positive control (reference = 100)): 100%
Keratin exfoliation relative value (%) ([2]; pH 6.0 (mixtures adjusted to weakly acidic using citric acid)): 25.5%
Keratin exfoliation relative value (%) ([2]; pH 6.0, 10% gluconolactone, second positive control): 18.8%

TGF-β
Average absorbance ([3]; 10 ng/ml (positive control)): 2.335
Collagen increase rate (%) ([3]; 10 ng/ml (positive control)): 14.7%

N=C(N)NCCC[C@H](N)C(=O)O [Arg, arginine]
Average absorbance ([3]; 10 ppm, cultured for 1 day): 2.429
Collagen increase rate (%) ([3]; 10 ppm): 19.3%
Wound healing percentage (%) after 24 hours ([4]; 10 ppm (mixtures based on the concentration of arginine)): 73.5%

N[C@@H](CCC(=O)O)C(=O)O [Glu, glutamic acid]
Average absorbance ([3]; 10 ppm, cultured for 1 day): 2.240
Collagen increase rate (%) ([3]; 10 ppm): 10.0%
Wound healing percentage (%) after 24 hours ([4]; 1 ppm): 70.1%
